The values that follow come from PubChem BioAssay AID1996.

Structures are written as SMILES. ≈ marks a conversion by molar mass, not a printed value.

For this data set the following is noted: buffer; pH 7.4; 200.0 µM.
One may read the kinetic solubility as solubility judged after dilution from a stock solution rather than from solid. In turn, `CCn1cc(C2CC(=O)NC2=O)c2ccccc21` (configuration not stated) gave a solubility (kinetic) above 36.3 µg/mL.
Take `CCCc1cc(C(=O)Nc2cc(OC)ccc2OC)cs1`: the solubility (kinetic) is 8.6 µg/mL (≈ 28.2 µM).
Compound `CCC(CC)C(=O)c1c[nH]c(C(=O)NCc2ccccc2OC)c1` had a kinetic solubility of 0.8 µg/mL (≈ 2.44 µM).
The same measure for `Cc1ccc(NC(=O)COC(=O)Cc2ccccc2)cc1S(=O)(=O)N1CCOCC1`: 58.1 µg/mL (≈ 134 µM); for `CC(C)(C)CN1CCN(CCCc2ccccc2)C(CCO)C1` (configuration not stated): 43.5 µg/mL (≈ 137 µM); for `O=Cc1ccc(Oc2ncccn2)cc1`: above 30 µg/mL.
As for `Cc1ccc2[nH]c3c(Cl)ncnc3c2c1`, the kinetic solubility came out at 13.3 µg/mL (≈ 61.1 µM).
`N#CC(=C=[N-])/C=C(\C(=O)c1ccccc1)[n+]1ccccc1`: the solubility (kinetic) is above 41 µg/mL.
With `C=CCn1c(=S)sc2c(=O)[nH]cnc21`, the solubility (kinetic) is above 33.8 µg/mL.
With `CCOC(=O)N1CCC(N2CCN(c3ccccc3)CC2)CC1.Cl`, the solubility (kinetic) was 51.1 µg/mL.
Consider `O=[N+]([O-])c1ncc(Br)cc1Nc1ccccc1`, for which the solubility (kinetic) was 16.3 µg/mL (≈ 55.4 µM).
With `Cc1ccc(CN2CCc3[nH]c(=S)[nH]c(=O)c3C2)cc1`, the solubility (kinetic) amounted to 10.5 µg/mL (≈ 36.5 µM).
`Cc1ccc(Cn2c(=S)[nH]c3ccccc3c2=O)cc1` showed a kinetic solubility below 0.3 µg/mL.
`CN1CCCN(Cc2nc(-c3ccc(Cl)cc3)no2)CC1` gave a kinetic solubility of 40.4 µg/mL (≈ 132 µM).
In the case of `CCC1C(=O)Nc2ccccc2N1C(=O)COc1ccccc1` (configuration not stated), the kinetic solubility was above 46.6 µg/mL.
Consider `CCOc1ccc(C2C(C#N)=C(N)Oc3cc(C)[nH]c(=O)c32)cc1OC` (configuration not stated), for which the kinetic solubility is above 53 µg/mL.
Regarding `Cc1nc(C)c(-c2csc(Nc3ccc(F)cc3)n2)s1`, the solubility (kinetic) amounted to 1.8 µg/mL (≈ 5.89 µM).
The same measure for `O=C(NCCc1ccccc1)C(=O)c1c[nH]c2ccccc12`: 0.4 µg/mL (≈ 1.37 µM); for `CCN(CC)Cc1oc(-c2ccccc2)cc1C(=O)O`: 32.2 µg/mL (≈ 118 µM).
`CCN(CC(=O)N1CCCC1)S(=O)(=O)c1cc(C)ccc1OC` had a solubility (kinetic) of 49.5 µg/mL (≈ 145 µM).
For `O=C(O)C1CCN(S(=O)(=O)c2cccs2)CC1`, the kinetic solubility was above 41.3 µg/mL.
`O=c1cc(C(O)C[N+](=O)[O-])occ1OCc1ccccc1` (configuration not stated) returned a solubility (kinetic) of 41.6 µg/mL (≈ 143 µM).
In turn, `O=C(CNC(=O)c1ccc(Br)o1)NCc1ccccc1` came in with a solubility (kinetic) above 50.6 µg/mL.
With `Cn1cc(C(=O)N2CCCCC2)c2ccccc21`, the solubility (kinetic) was above 36.3 µg/mL.
Regarding `COc1ccc2[nH]cc(CCNC(=S)NC3CCCC3)c2c1`, the solubility (kinetic) amounted to 43.6 µg/mL (≈ 137 µM).
In the case of `CC12CCC(C/C1=N\OC(=O)c1c(F)cccc1F)C2(C)C` (configuration not stated), the solubility (kinetic) stood at 21.5 µg/mL (≈ 70 µM).
`Cc1ccccc1NC(=O)c1cccc(NC(=O)c2c(C(=O)O)cccc2[N+](=O)[O-])c1` showed a solubility (kinetic) of 56.1 µg/mL (≈ 134 µM).
With `C=CCN1C(=O)C(CC(=O)NCC)SC1=Nc1ccccc1CC` (configuration not stated) the figure was 44.3 µg/mL (≈ 128 µM); with `COCCCN(C(=S)Nc1ccc(OC)cc1)C(C)c1ccncc1` (configuration not stated), above 53.9 µg/mL.
The compound `CC1CC1C(=O)Nc1cc(C(F)(F)F)ccc1N1CCOCC1` (configuration not stated) showed a kinetic solubility of 40.9 µg/mL (≈ 125 µM).
Compound `Nc1cc(S(=O)(=O)c2ccc(O)c(N)c2)ccc1O` had a kinetic solubility above 42 µg/mL.
`COC(=O)C1=C(C)N(CCc2c[nH]c3ccccc23)C(=O)C1`: the solubility (kinetic) was found to be 42.8 µg/mL (≈ 143 µM).
As for `COc1ccccc1NC(=O)Cc1ccsc1`, the kinetic solubility was above 37.1 µg/mL.
As for `O=C(Nc1cccc2cccnc12)c1cccc(Cl)c1`, the solubility (kinetic) amounted to 1.5 µg/mL (≈ 5.31 µM).
The compound `COCC(=O)Nc1ccc(N2CCN(c3ccccc3)CC2)c(F)c1` showed a kinetic solubility of 2 µg/mL (≈ 5.82 µM). This solubility kinetic and that of the compound before are within 1.5-fold of each other.
With `O=C(Cc1c[nH]c2ccccc12)NCc1ccccc1F` the figure was 42.3 µg/mL (≈ 150 µM); with `CCOC(=O)CNc1nc(Cl)nc(Nc2ccc(Cl)cc2)n1`, below 0.1 µg/mL; with `O=[N+]([O-])c1cc(C(F)(F)F)ccc1NC1CCN(Cc2ccccc2)C1` (configuration not stated), 1.7 µg/mL (≈ 4.65 µM).
For `CC(C)c1ccccc1OCCCCCN1CCOCC1`, the kinetic solubility was found to be 25.8 µg/mL (≈ 88.5 µM).
`Cc1cccc(C)c1OCCN1CCCC1` showed a solubility (kinetic) of 28.7 µg/mL (≈ 131 µM). This solubility kinetic and that of the compound before are within 1.5-fold of each other.
Take `Cc1ccc(NC(=O)CN2c3cccc4cccc(c34)S2(=O)=O)cc1`: the kinetic solubility worked out at 3.8 µg/mL (≈ 10.8 µM).
The same measure for `CC1CN(CCn2cnc3c(N)ncnc32)CC(C)O1` (configuration not stated): 36.9 µg/mL (≈ 134 µM).
`COc1ccc(N2CCOCC2)c(NC(=O)c2ccco2)c1` had a kinetic solubility of 38.4 µg/mL (≈ 127 µM).
As for `O=C(NCC1CCCO1)c1cc(C(=O)C2CCCCC2)c[nH]1` (configuration not stated), the kinetic solubility was above 45.7 µg/mL.
Compound `C=CCSc1nc2sc3c(c2c(=O)n1-c1ccc(C)cc1)CCN(C)C3` displayed a kinetic solubility of 22.3 µg/mL (≈ 58.1 µM).
`O=C(CNS(=O)(=O)c1ccc(Br)cc1)Nc1ccc2c(c1)OCCO2` registered a solubility (kinetic) of 8.7 µg/mL (≈ 20.4 µM).
With `C=CCNC(=O)/C(=C\c1ccco1)NC(=O)c1ccco1` the figure was above 42.9 µg/mL; with `CC1CCC(NC(=O)CSc2nncs2)CC1` (configuration not stated), above 40.7 µg/mL; with `Cc1ccc(CNC(=O)C2CCCC2)cc1`, 27.5 µg/mL (≈ 127 µM).
With `N#C/C(=C\c1ccc[nH]1)C(=O)Nc1ccccc1Cl` the figure was below 0.2 µg/mL.
`CC(c1ccccc1)C(CC(=O)O)C(=O)Nc1ccc(Cl)c(Cl)c1` (configuration not stated) yielded a kinetic solubility of 46 µg/mL (≈ 126 µM).
Consider `Cc1ccc(OCCCn2ccnc2)c(Br)c1`, for which the solubility (kinetic) is 30.8 µg/mL (≈ 104 µM).
